Key:
[1] = biological target: T1, c-IAP1 (Homo sapiens, UniProt Q13490); test: Fluorescence polarization-based competition assay, c-IAP1; type: binding; details: FP assay, ki derived from IC50
T1 construct: GST (N); made in house; host or cells: E. coli DH5α
Method: (§1) Binding of compounds of Formula 1 to target BIR domains was measured using a fluorescence-polarization (FP) assay. Fluorescence-polarization was evaluated using a GENios microplate reader (TECAN) Pro instrument with the excitation filter set at 485 nm and the emission filter set at 535 nm. The final amount of protein used in the assay corresponds to the amount of protein necessary to obtain 80% of the maximum FP value in a P1 or P2 fluorescent (FITC) probe saturation experiment. The compounds potency (IC50) and selectivity, was assessed in the presence of the amount of target protein established, fluorescent probe, and a 10 point serial dilution in assay buffer (50 mM Hepes, pH 7.5, 250 mcg/mL γ-globulin, 2 mM DTT, 1% DMSO) of the selected compounds.
(§2) Assays were carried out in duplicate using untreated black 96-well plates (Corning #3915) and a total volume of 100 microliters, containing 25 microliters of fluorescent probe at a final concentration of 2 nM in assay buffer, 25 microliters of diluted compound, 25 microliters of BIR protein into assay buffer and 25 microliters of assay buffer. Buffer only (blank) or probe only in buffer (G-factor) were used as controls for calibration. The plate was incubated at room temperature in the dark for one hour and FP values in millipolarization units (mP) were recorded using Genios Pro FP reader.
(§3) The measured FP values (mP) were then plotted against compound concentration, and IC50 values were calculated based on a sigmoidal dose-response (variable-slope) curve fit using GraphPad Prism version 4.02 for Windows, GraphPad Software, San Diego Calif. USA and/or CambridgeSoft BioAssay Enterprise Version 10.1. The IC50 value is the concentration of test compound at which 50% of the tracer was displaced. ki values were derived from the calculated IC50 values as described above and according to the equation described in Nikolovska-Coleska, Z. (2004) Anal Biochem 332, 261-273. The results are presented in Table 2, wherein A=less than 25 nM; B=less than 250 nM; C=less than 1000 nM; and D=greater than 1000 nM.

[2] = biological target: T2, XIAP (Homo sapiens, UniProt P98170); test: Fluorescence polarization-based competition assay, XIAP; type: binding; details: FP assay, ki derived from IC50
T2 construct: fused on or other part: GST tag at the N-terminus (pGEX4T vectors)
T2 sequence (P98170 246-497 limits assumed): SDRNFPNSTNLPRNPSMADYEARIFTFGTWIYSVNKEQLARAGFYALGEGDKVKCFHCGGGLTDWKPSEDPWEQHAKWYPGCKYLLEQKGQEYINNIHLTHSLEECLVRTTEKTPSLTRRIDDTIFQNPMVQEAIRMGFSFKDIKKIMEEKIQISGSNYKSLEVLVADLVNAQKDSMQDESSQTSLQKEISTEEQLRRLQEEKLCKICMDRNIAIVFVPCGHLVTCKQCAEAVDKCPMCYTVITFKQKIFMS
Method: as §1, §2, §3

[3] = tested on: Colorectal carcinoma HCT116 cells; test: Cell death assay (MTT) in combination with HGS ETR1; type: cell-based; details: with HGS ETR1 30 ng/ml, 72 hours, read-out: HCT116+ mapatubimap EC50
Method: Colorectal carcinoma HCT116 cells were cultured as monolayers in 96 well plates at a density of 2000 cells per well in McCoy's 5a medium (HyClone) supplemented with 2.2 g/L sodium bicarbonate, 10% FBS (HyClone) and 1% penicillin/streptomycin (HyClone). 24 hours later, triplicate wells were treated with HGS ETR1 (30 ng/ml) in combination with compound. Cells were incubated in the presence of compound and HGS agonistic Trail receptor antibody, ETR1 (Mapatumamab, 30 ng/ml) for 72 hours. Metabolic viability of remaining cells was assessed by MTT (thiazolyl blue tetrazolium bromide, Sigma) assay.
EC50 values (50% cell survival in the presence of compound as compared to untreated controls) were calculated from survival curves using BioAssay software (CambridgeSoft) and GraphPad Prism (Graph Pad Software Inc.). The results are provided in Table 3, below, wherein A=less than 50 nM; B=less than 250 nM; C=less than 1000 nM; and D=greater than 1000 nM.

[4] = biological target: T3, cIAP2 (Homo sapiens, UniProt Q13489); test: Fluorescence polarization-based competition assay, cIAP2; type: binding; details: FP assay, ki derived from IC50
T3 construct: GST (N); made in house; host or cells: E. coli DH5α
T3 sequence (Q13489 236-349): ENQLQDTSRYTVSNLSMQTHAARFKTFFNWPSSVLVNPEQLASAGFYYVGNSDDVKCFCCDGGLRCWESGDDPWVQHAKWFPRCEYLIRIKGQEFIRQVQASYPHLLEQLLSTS
Method: as §1, §2, §3

T1 sequence (Q13490 251-363): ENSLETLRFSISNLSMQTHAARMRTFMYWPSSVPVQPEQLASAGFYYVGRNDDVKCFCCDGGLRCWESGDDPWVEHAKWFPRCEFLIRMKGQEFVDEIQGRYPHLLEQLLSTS

SMILES | Ki [1] | Ki [2] | EC50 [3] | Ki [4]
CN[C@@H](C)C(=O)N[C@H](C(=O)N1CCC[C@H]1CN(CCc1ccc(F)cc1)C(=O)c1cn2ccccc2n1)[C@@H](C)OC [Compound 58] | < 0.025 µM | < 0.25 µM | < 0.05 µM | < 0.025 µM
CN[C@@H](C)C(=O)N[C@H](C(=O)N1CCC[C@H]1CN(CCc1ccc(F)cc1)C(=O)c1cnn(-c2ccccc2)c1)C(C)(C)C [Compound 90] | < 0.025 µM | < 0.25 µM | < 0.25 µM | < 0.025 µM
CN[C@@H](C)C(=O)N[C@H](C(=O)N1C[C@@H](Oc2ccc(F)cc2)C[C@H]1CN(CCc1ccc(F)cc1)C(=O)c1cn2ccccc2n1)[C@@H](C)OC [Compound 102] | < 0.025 µM | < 0.25 µM | < 0.05 µM | < 0.025 µM
CN[C@@H](C)C(=O)N[C@H](C(=O)N1C[C@@H](Oc2ccc(F)cc2)C[C@H]1CN(CCc1ccc(F)cc1)C(=O)c1cn(C)cn1)[C@@H](C)OC [Compound 99] | < 0.025 µM | < 0.25 µM | < 0.05 µM | < 0.025 µM
CN[C@@H](C)C(=O)N[C@H](C(=O)N1CCC[C@H]1CN(CCc1ccc(F)cc1)C(=O)c1cn2cccnc2n1)[C@@H](C)OC [Compound 36] | < 0.025 µM | < 0.25 µM | < 0.25 µM | < 0.025 µM
CN[C@@H](C)C(=O)N[C@H](C(=O)N1CCC[C@H]1CN(CCc1ccc(F)cc1)C(=O)c1cn2c(n1)CCC2)C(C)(C)C [Compound 67] | < 0.025 µM | < 0.25 µM | < 0.05 µM | < 0.025 µM
CN[C@@H](C)C(=O)N[C@H](C(=O)N1CCC[C@H]1CN(CCc1ccc(F)cc1)C(=O)c1cn2c(n1)CCC2)[C@@H](C)OC [Compound 75] | < 0.025 µM | < 0.25 µM | < 0.05 µM | < 0.025 µM
CCN[C@@H](C)C(=O)N[C@H](C(=O)N1CCC[C@H]1CN(CCc1ccccc1)C(=O)c1cn2cccnc2n1)C1CCCCC1 [Compound 2] | < 0.25 µM | > 1 µM | < 1 µM | < 0.25 µM
CN[C@@H](C)C(=O)N[C@H](C(=O)N1CCC[C@H]1CN(CCc1ccccc1)C(=O)c1cn2cc(F)ccc2n1)C(C)(C)C [Compound 32] | < 0.025 µM | < 0.25 µM | < 0.25 µM | < 0.025 µM
CN[C@@H](C)C(=O)N[C@H](C(=O)N1CCC[C@H]1CN(CCc1ccc(F)cc1)C(=O)c1cn(-c2ccc(F)cc2)cn1)[C@@H](C)OC [Compound 72] | < 0.025 µM | < 0.25 µM | < 0.05 µM | < 0.025 µM
CCO[C@H](C)[C@H](NC(=O)[C@H](C)NC)C(=O)N1CCC[C@H]1CN(CCc1ccc(F)cc1)C(=O)c1cn2ccccc2n1 [Compound 78] | < 0.025 µM | < 0.25 µM | < 0.05 µM | < 0.025 µM
CN[C@@H](C)C(=O)N[C@H](C(=O)N1C[C@@H](NC(=O)c2ccccc2)C[C@H]1CN(CCc1ccc(F)cc1)C(=O)c1cn2cc(F)cnc2n1)C(C)(C)C [Compound 112] | < 0.025 µM | < 0.25 µM | < 0.25 µM | < 0.025 µM
CN[C@@H](C)C(=O)N[C@H](C(=O)N1C[C@@H](Oc2ccc(OC(F)(F)F)cc2)C[C@H]1CN(CCc1ccc(F)cc1)C(=O)c1cn2ccccc2n1)C(C)(C)C [Compound 111] | < 0.025 µM | < 0.025 µM | < 0.05 µM | < 0.025 µM
CN[C@@H](C)C(=O)N[C@H](C(=O)N1CCC[C@H]1CN(CCc1ccc(F)cc1)C(=O)c1cn(C2CCCCC2)cn1)C(C)(C)C [Compound 93] | < 0.025 µM | < 0.25 µM | < 0.05 µM | < 0.025 µM
CN[C@@H](C)C(=O)N[C@H](C(=O)N1C[C@@H](Oc2ccc(F)cc2)C[C@H]1CN(CCc1ccc(F)cc1)C(=O)c1cn2cc(F)cnc2n1)C(C)(C)C [Compound 116] | < 0.025 µM | < 0.025 µM | < 0.05 µM | < 0.025 µM
CN[C@@H](C)C(=O)N[C@H](C(=O)N1CCC[C@H]1CN(CCc1ccc(F)cc1)C(=O)c1nnc(-c2ccccc2)o1)C(C)(C)C [Compound 117] | < 0.025 µM | < 1 µM | < 0.25 µM | < 0.025 µM
CN[C@@H](C)C(=O)N[C@H](C(=O)N1CCC[C@H]1CN(CCc1ccc(F)cc1)C(=O)c1cn(C)cn1)C1CCCCC1 [Compound 120] | < 0.025 µM | < 0.25 µM | < 0.05 µM | < 0.025 µM
CN[C@@H](C)C(=O)N[C@H](C(=O)N1CCC[C@H]1CN(CCc1ccc(F)cc1)C(=O)c1cn(-c2ccc(F)cc2)cn1)C1CCCCC1 [Compound 104] | < 0.025 µM | < 0.25 µM | < 0.05 µM | < 0.025 µM
CN[C@@H](C)C(=O)N[C@H](C(=O)N1C[C@@H](NC(=O)OCc2ccccc2)C[C@H]1CN(CCc1ccc(F)cc1)C(=O)c1cn2cccnc2n1)C(C)(C)C [Compound 44] | < 0.025 µM | < 0.25 µM | < 0.25 µM | < 0.025 µM
CN[C@@H](C)C(=O)N[C@H](C(=O)N1CCC[C@H]1CN(CCc1ccccc1)C(=O)c1cn2cccnc2n1)C1CCOCC1 [Compound 3] | < 0.025 µM | < 0.25 µM | < 1 µM | –
CN[C@@H](C)C(=O)N[C@H](C(=O)N1CCC[C@H]1CN(CCc1ccc(F)cc1)C(=O)c1cn2cc(O)cnc2n1)C(C)(C)C [Compound 46] | < 0.025 µM | < 0.25 µM | < 1 µM | –
CN[C@@H](C)C(=O)N[C@H](C(=O)N1CCC[C@H]1CN(CCc1ccc(F)cc1)C(=O)c1cn(-c2ccc(OC)cc2)cn1)C(C)(C)C [Compound 52] | < 0.025 µM | < 0.25 µM | < 0.25 µM | –
CN[C@@H](C)C(=O)N[C@H](C(=O)N1CCC[C@H]1CN(CCc1ccccc1)C(=O)c1cc2ccccc2[nH]1)C(C)(C)C [Compound 27] | < 0.025 µM | < 0.25 µM | < 1 µM | –
CN[C@@H](C)C(=O)N[C@H](C(=O)N1CCC[C@H]1CN(CCc1ccccc1)C(=O)C(=O)Nc1ccccc1)C(C)(C)C [Compound 9] | < 0.025 µM | < 0.25 µM | < 0.25 µM | –
CC[C@H](NC)C(=O)N[C@H](C(=O)N1CCC[C@H]1CN(CCc1ccccc1)C(=O)c1cn2cccnc2n1)C1CCCCC1 [Compound 1] | < 0.025 µM | < 1 µM | < 0.25 µM | –
CN[C@@H](C)C(=O)N[C@H](C(=O)N1CCC[C@H]1CN(CCc1ccc(F)cc1)C(=O)c1nnn(-c2ccc(F)cc2)n1)C(C)(C)C [Compound 126] | < 0.025 µM | < 0.25 µM | – | < 0.025 µM
CN[C@@H](C)C(=O)N[C@H](C(=O)N1CCC[C@H]1CN(CCc1ccc(F)cc1)C(=O)c1cn(-c2ccc(F)cc2)nn1)C(C)(C)C [Compound 125] | < 0.025 µM | < 0.25 µM | – | < 0.025 µM
CN[C@@H](C)C(=O)N[C@H](C(=O)N1CCC[C@H]1CN(CCc1ccc(F)cc1)C(=O)c1coc(-c2ccccc2)n1)C(C)(C)C [Compound 64] | < 0.025 µM | < 0.25 µM | < 0.25 µM | –
CN[C@@H](C)C(=O)N[C@H](C(=O)N1CCC[C@H]1CN(CCc1ccc(F)cc1)C(=O)c1cn2ccccc2n1)C1CCOCC1 [Compound 19] | < 0.025 µM | < 0.25 µM | < 0.05 µM | –
CN[C@@H](C)C(=O)N[C@H](C(=O)N1CCC[C@H]1CN(CCc1ccccc1)C(=O)c1cn2ccc(C)cc2n1)C(C)(C)C [Compound 31] | < 0.025 µM | < 0.25 µM | < 0.25 µM | –
